The text below walks through data of US6204293A, “Inhibitors of protein isoprenyl transferases” (University of Pittsburgh, priority 1998, dated 2001).

For the experiment, the target named is T1, Rat brain protein farnesyltransferase (Rattus norvegicus, UniProt Q02293+Q04631).
T1 construct: Rat brain protein farnesyltransferase activity is measured; from tissue; host or cells: rat brain
The experiment is described as follows: % inhibition of farnesylation, scintillation proximity assay with biotin-K Ras B fragment. Format: biochemical. The note with it: for inhibition at 0.1 µM: read-out: % inhibition at 1 × 10^-7 M; for inhibition at 1 µM: read-out: % inhibition at 1 × 10^-6 M. A digest of the protocol: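 Scintillation proximity read-out of farnesylation, using a biotinylated K Ras B fragment (0.1 mM final) in place of biotin-lamin. Enzyme purified from rat brain; results given as % inhibition.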

For orientation: inhibition means how much of the control response was suppressed. Broadly, the % inhibition is the percentage by which the read-out fell short of the control. Read a low % inhibition as a response near the control.

Where a name gives a salt, the structure may show the parent alone. Read-outs that look alike come from different tables or passages of the source.

T1 sequence (Q02293 whole entry, one chain of several): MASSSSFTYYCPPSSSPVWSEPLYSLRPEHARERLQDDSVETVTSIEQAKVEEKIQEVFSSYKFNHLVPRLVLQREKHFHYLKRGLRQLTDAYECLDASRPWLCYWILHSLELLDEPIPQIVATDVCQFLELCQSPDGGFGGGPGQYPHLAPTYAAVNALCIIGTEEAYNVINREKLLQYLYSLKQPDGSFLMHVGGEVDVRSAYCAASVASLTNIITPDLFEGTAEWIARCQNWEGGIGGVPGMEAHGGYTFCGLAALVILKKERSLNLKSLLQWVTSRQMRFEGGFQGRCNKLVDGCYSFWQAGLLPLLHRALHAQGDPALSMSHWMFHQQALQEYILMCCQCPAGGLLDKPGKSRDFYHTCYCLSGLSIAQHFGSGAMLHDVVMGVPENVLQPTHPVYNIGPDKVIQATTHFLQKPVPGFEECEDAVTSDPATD

With `CSCC[C@H](NC(=O)c1ccc(COCc2ccc(C)o2)cc1-c1ccccc1C)C(=O)O` [Example 532, N-[4-(5-methylfuran-2-ylmethoxymethyl)-2-(2-methylphenyl)benzoyl]methioninelithium salt], for the setting “Table 3, 1 × 10^-7 M”, the inhibition at 0.1 µM was determined as 88%.

For the compound `CSCC[C@H](NC(=O)c1ccc(COCc2cc3ccccc3o2)cc1-c1ccccc1C)C(=O)O` [Example 533, N-[4-(benzofuran-2-ylmethoxymethyl)-2-(2-methylphenyl)benzoyl]methionine lithium salt], the inhibition at 0.1 µM was found to be 91%.

With `CSCC[C@H](NC(=O)c1ccc(COC(Cc2ccccc2)c2ccco2)cc1-c1ccccc1C)C(=O)O` (stereo partly shown) [Example 534, N-[4-(1-furan-2-yl-2-phenylethoxymethyl)-2-(2-methylphenyl)benzoyl]methionine lithium salt], the inhibition at 0.1 µM worked out at 84%.

Consider `CSCC[C@H](NC(=O)c1ccc(COCCc2ccc(-c3ccc(F)cc3)o2)cc1-c1ccccc1C)C(=O)O` [Example 535, N-[4-(5-(4-fluorophenyl)furan-2-ylethoxymethyl)-2-(2-methylphenyl)benzoyl]methionine lithium salt], for which the inhibition at 0.1 µM worked out at 89%.

For the compound `CSCC[C@H](NC(=O)c1ccc(COCCc2ccc(-c3ccc(Cl)cc3)o2)cc1-c1ccccc1C)C(=O)O` [Example 536, N-[4-(5-(4-chlorophenyl)furan-2-ylethoxymethyl)-2-(2-methylphenyl)benzoyl]methionine lithium salt], the inhibition at 0.1 µM amounted to 79%.

`CSCC[C@H](NC(=O)c1ccc(COCc2cncs2)cc1-c1ccccc1C)C(=O)O` [Example 539, N-[4-(thiazol-5-ylmethoxymethyl)-2-(2-methylphenyl)benzoyl]methionine lithium salt]: the inhibition at 0.1 µM was found to be 89%.

Consider `CSCC[C@H](NC(=O)c1ccc(NC(=O)Cc2ccccc2)cc1-c1ccccc1C)C(=O)O` [Example 540], for which the “% inhibition at 1 × 10^-6 M” value (Table 2, 1 × 10^-6 M) is 40%.

Regarding `CSCC[C@H](NC(=O)c1ccc(NC(=O)Cc2ccc(C)cc2)cc1-c1ccccc1C)C(=O)O` [Example 541], for the setting “Table 2, 1 × 10^-6 M”, the “% inhibition at 1 × 10^-6 M” value came out at 37%.

`COc1ccc(CC(=O)Nc2ccc(C(=O)N[C@@H](CCSC)C(=O)O)c(-c3ccccc3C)c2)cc1` [Example 542]: under “Table 2, 1 × 10^-6 M”, the “% inhibition at 1 × 10^-6 M” value was 67%.

For the compound `COc1ccccc1CCC(=O)Nc1ccc(C(=O)N[C@@H](CCSC)C(=O)O)c(-c2ccccc2C)c1` [Example 544], under “Table 2, 1 × 10^-6 M”, the “% inhibition at 1 × 10^-6 M” value was found to be 35%.

As to `CSCC[C@H](NC(=O)c1ccc(CS[C@H](CO)Cc2ccccc2)cc1-c1ccccc1)C(=O)O` [Example 545, N-[4-(3-phenylpropan-1-ol-2-ylthiomethyl)-2-phenylbenzoyl]methionine, sodium salt], the inhibition at 1 µM (Table 2, 1 × 10^-6 M) stood at 88%.

On to `CSCC[C@H](NC(=O)c1ccc(OC/C=C(\C)CCC=C(C)C)cc1-c1ccccc1C)C(=O)O` [Example 546, N-[4-geranyloxy-2-(2-methylphenyl)benzoyl]methionine, lithium salt], for which the inhibition at 1 µM (Table 2, 1 × 10^-6 M) was found to be 97%.

As for `CSCC[C@H](NC(=O)c1ccc(OC/C=C(\C)CC/C=C(\C)CCC=C(C)C)cc1-c1ccccc1C)C(=O)O` [Example 547, N-[4-farnesyloxy-2-(2-methylphenyl)benzoyl]methionine, lithium salt], the inhibition at 1 µM (Table 2, 1 × 10^-6 M) was found to be 91%.

In the case of `CSCC[C@H](NC(=O)c1ccc(CSC2CCCCC2)cc1-c1ccccc1C)C(=O)O` [Example 550, N-[4-cyclohexylthiomethyl-2-(2-methylphenyl)benzoyl]methionine, lithium salt], the inhibition at 1 µM stood at 96%.

Consider `CSCC[C@H](NC(=O)c1ccc(CSc2ccc3ccccc3c2)cc1-c1ccccc1C)C(=O)O` [Example 551, N-[4-naphth-2-ylthiomethyl-2-(2-methylphenyl)benzoyl]methionine], for which the inhibition at 0.1 µM (Table 3, 1 × 10^-7 M) is 93%.

As to `CSCC[C@H](NC(=O)c1ccc(OCCC2CCCCC2)cc1-c1ccccc1C)C(=O)O` [Example 552, N-[4-(2-cyclohexylethoxy)-2-(2-methylphenyl)benzoyl]methionine, lithium salt], the inhibition at 1 µM turned out to be 88%.

For `CSCC[C@H](NC(=O)c1ccc(OCCC23CC4CC(CC(C4)C2)C3)cc1-c1ccccc1C)C(=O)O` [Example 553, N-[4-(2-adamantan-1-ylethoxy)-2-(2-methylphenyl)benzoyl]methionine], under “Table 2, 1 × 10^-6 M”, the inhibition at 1 µM was 92%.

With `CSCC[C@H](NC(=O)c1ccc(CSCc2ccccc2)cc1-c1ccccc1C)C(=O)O` [Example 554, N-[4-benzylthiomethyl-2-(2-methylphenyl)benzoyl]methionine, lithium salt], the inhibition at 1 µM came out at 96%.

On to `CSCC[C@H](NC(=O)c1ccc(CS(=O)(=O)Cc2ccccc2)cc1-c1ccccc1C)C(=O)O` [Example 555, N-[4-benzylsulfonylmethyl-2-(2-methylphenyl)benzoyl]methionine], for which, under “Table 2, 1 × 10^-6 M”, the inhibition at 1 µM came to 85%.

In the case of `CSCC[C@H](NC(=O)c1ccc(CSCc2ccc(C)cc2)cc1-c1ccccc1C)C(=O)O` [Example 556, N-[4-(4-methylbenzyl)thiomethyl-2-(2-methylphenyl)benzoyl]methionine, lithium salt], the inhibition at 1 µM came out at 99%.

For `CSCC[C@H](NC(=O)c1ccc(CSCc2ccccc2C)cc1-c1ccccc1C)C(=O)O` [Example 557, N-[4-(2-methylbenzyl)thiomethyl-2-(2-methylphenyl)benzoyl]methionine, lithium salt], the inhibition at 1 µM is 93%.

With `COc1ccc(CSCc2ccc(C(=O)N[C@@H](CCSC)C(=O)O)c(-c3ccccc3C)c2)cc1` [Example 558, N-[4-(4-methoxybenzyl)thiomethyl-2-(2-methylphenyl)benzoyl]methionine, lithium salt], the inhibition at 0.1 µM (Table 3, 1 × 10^-7 M) is 87%.

`CSCC[C@H](NC(=O)c1ccc(CSCC2CCCCC2)cc1-c1ccccc1C)C(=O)O` [Example 559, N-[4-cyclohexylmethylthiomethyl-2-(2-methylphenyl)benzoyl]methionine, lithium salt]: the inhibition at 0.1 µM worked out at 96%.

Take `CSCC[C@H](NC(=O)c1ccc(OC/C=C/c2ccccc2)cc1-c1ccccc1C)C(=O)O` [Example 560, N-[4-(3-phenyl)prop-2-en-1-yloxy-2-(2-methylphenyl)benzoyl]methionine]: for the setting “Table 2, 1 × 10^-6 M”, the inhibition at 1 µM stood at 91%.

With `CSCC[C@H](NC(=O)c1ccc(OCCOc2ccccc2)cc1-c1ccccc1C)C(=O)O` [Example 561, N-[4-(2-phenoxy)ethoxy-2-(2-methylphenyl)benzoyl]methionine], the inhibition at 1 µM (Table 2, 1 × 10^-6 M) turned out to be 91%.

Regarding `CSCC[C@H](NC(=O)c1ccc(CSCCc2ccccc2)cc1-c1ccccc1C)C(=O)O` [Example 562, N-[4-(2-phenyl)ethylthiomethyl-2-(2-methylphenyl)benzoyl]methionine, lithium salt], the inhibition at 0.1 µM was determined as 95%.

Turning to `CSCC[C@H](NC(=O)c1ccc(OCCCC2CCCCC2)cc1-c1ccccc1C)C(=O)O` [Example 564, N-[4-(3-cyclohexylpropoxy)-2-(2-methylphenylbenzoyl]methionine, lithium salt], under “Table 2, 1 × 10^-6 M”, the inhibition at 1 µM was found to be 98%.

With `CSCC[C@H](NC(=O)c1ccc(OCCOC2CCCCC2)cc1-c1ccccc1C)C(=O)O` [Example 565, N-[4-(2-cyclohexyloxy)ethoxy-2-(2-methylphenyl)benzoyl]methionine, lithium salt], the inhibition at 1 µM stood at 94%.
